Results published in patent US12077503B2, “Substituted cyclic amides and their use as herbicides” (FMC CORPORATION, priority 2015, dated 2024).
Like-named read-outs stand apart in the source and are kept apart here.

Legend:
Type in all cases: in vivo
[1] = tested on: sedge, umbrella (small-flower umbrella sedge, Cyperus difformis); experiment: Test B flooded paddy test; details: Cyperus difformis, 250 g ai/ha, Flood; 0 to 100 scale where 0 is no effect and 100 is complete control; read-out: Sedge, Umbrella plant response rating
Summary of the method: (§1)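 2-leaf plants; pots flooded 3 cm over soil; cpd added to paddy water; depth held; greenhouse 13–15 d; visual rating vs controls, 0 = no effect, 100 = complete control.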

rice (Oryra sativa) = experiment: Test B flooded paddy test; details: Oryza sativa, 250 g ai/ha, Flood; 0 to 100 scale where 0 is no effect and 100 is complete control; read-out: Rice plant response rating
Summary of the method: as §1

[2] = tested on: barnyardgrass (Echinochloa crus-galli); experiment: Test B flooded paddy test; details: Echinochloa crus-galli, 250 g ai/ha, Flood; 0 to 100 scale where 0 is no effect and 100 is complete control; read-out: Barnyardgrass plant response rating
Summary of the method: as §1

[3] = tested on: ducksalad (Heteranthera limosa); experiment: Test B flooded paddy test; details: Heteranthera limosa, 250 g ai/ha, Flood; 0 to 100 scale where 0 is no effect and 100 is complete control; read-out: Ducksalad plant response rating
Summary of the method: as §1

[4] = tested on: ryegrass, Italian (Italian ryegrass, Lolium multiflorum); experiment: Test A preemergence; details: Lolium multiflorum, pre-emergence, 240 h, 0 to 100 scale where 0 is no effect and 100 is complete control, read-out: Ryegrass, Italian plant response rating; for pest or weed control at 31 g/ha: 31 g ai/ha, Preemergence; for pest or weed control at 125 g/ha: 125 g ai/ha, preemergence, approx. 10 d
Summary of the method: (§2)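 Greenhouse, ~10 d after spray; visual injury vs untreated controls, 0 = no effect, 100 = complete control. Preemergence: directed soil spray over planted seeds. Postemergence: plants 2–10 cm, 1–2 leaf stage. Loam/sand blend. Compound in non-phytotoxic solvent with surfactant.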

Kochia (Kochia scoparia) [5] = experiment: Test A preemergence; details: Bassia scoparia, pre-emergence, 240 h, 0 to 100 scale where 0 is no effect and 100 is complete control, read-out: Kochia plant response rating; for pest or weed control at 31 g/ha: 31 g ai/ha, Preemergence; for pest or weed control at 125 g/ha: 125 g ai/ha, preemergence, approx. 10 d
Summary of the method: as §2

[6] = tested on: pigweed (Amaranthus retroflexus); experiment: Test A preemergence; details: Amaranthus retroflexus, pre-emergence, 240 h, 0 to 100 scale where 0 is no effect and 100 is complete control, read-out: Pigweed plant response rating; for pest or weed control at 31 g/ha: 31 g ai/ha, Preemergence; for pest or weed control at 125 g/ha: 125 g ai/ha, preemergence, approx. 10 d
[7] = tested on: barnyardgrass (Echinochloa crus-galli); experiment: Test A preemergence; details: Echinochloa crus-galli, pre-emergence, 240 h, 0 to 100 scale where 0 is no effect and 100 is complete control, read-out: Barnyardgrass plant response rating; for pest or weed control at 31 g/ha: 31 g ai/ha, Preemergence; for pest or weed control at 125 g/ha: 125 g ai/ha, preemergence, approx. 10 d
Summary of the method: as §2

[8] = tested on: ragweed (common ragweed, Ambrosia elatior); experiment: Test A preemergence; details: Ambrosia artemisiifolia, pre-emergence, 240 h, 0 to 100 scale where 0 is no effect and 100 is complete control, read-out: Ragweed plant response rating; for pest or weed control at 31 g/ha: 31 g ai/ha, Preemergence; for pest or weed control at 125 g/ha: 125 g ai/ha, preemergence, approx. 10 d
Summary of the method: as §2

[9] = tested on: giant foxtail (Setaria faberii); experiment: Test A preemergence; details: Setaria faberi, pre-emergence, 240 h, 0 to 100 scale where 0 is no effect and 100 is complete control, read-out: Foxtail, Giant plant response rating; for pest or weed control at 31 g/ha: 31 g ai/ha, Preemergence; for pest or weed control at 125 g/ha: 125 g ai/ha, preemergence, approx. 10 d
Summary of the method: as §2

[10] = tested on: ryegrass, Italian (Italian ryegrass, Lolium multiflorum); experiment: Test A postemergence; details: Lolium multiflorum, post-emergence, 240 h; for pest or weed control at 125 g/ha: 125 g ai/ha, postemergence; for pest or weed control at 31 g/ha: Postemergence, 31 g ai/ha, visual injury after approx. 10 d, 0 to 100 scale, 0 no effect, 100 complete control, read-out: Plant response rating, Ryegrass, Italian
Summary of the method: as §2

Kochia (Kochia scoparia) [11] = experiment: Test A postemergence; details: Bassia scoparia, post-emergence, 240 h; for pest or weed control at 125 g/ha: 125 g ai/ha, postemergence, visual injury on 0 to 100 scale (0 no effect, 100 complete control), approx. 10 d, read-out: Kochia plant response rating; for pest or weed control at 31 g/ha: Postemergence, 31 g ai/ha, visual injury after approx. 10 d, 0 to 100 scale, 0 no effect, 100 complete control, read-out: Plant response rating, Kochia
Summary of the method: as §2

[12] = tested on: Galium (catchweed bedstraw, Galium aparine); experiment: Test A postemergence; details: Galium, post-emergence, 240 h; for pest or weed control at 125 g/ha: 125 g ai/ha, postemergence, visual injury on 0 to 100 scale (0 no effect, 100 complete control), approx. 10 d, read-out: Galium plant response rating; for pest or weed control at 31 g/ha: Postemergence, 31 g ai/ha, visual injury after approx. 10 d, 0 to 100 scale, 0 no effect, 100 complete control, read-out: Plant response rating, Galium
Summary of the method: as §2

[13] = tested on: pigweed (Amaranthus retroflexus); experiment: Test A postemergence; details: Amaranthus retroflexus, post-emergence, 240 h; for pest or weed control at 125 g/ha: 125 g ai/ha, postemergence; for pest or weed control at 31 g/ha: Postemergence, 31 g ai/ha, visual injury after approx. 10 d, 0 to 100 scale, 0 no effect, 100 complete control, read-out: Plant response rating, Pigweed
Summary of the method: as §2

[14] = tested on: barnyardgrass (Echinochloa crus-galli); experiment: Test A postemergence; details: Echinochloa crus-galli, post-emergence, 240 h; for pest or weed control at 125 g/ha: 125 g ai/ha, postemergence, visual injury on 0 to 100 scale (0 no effect, 100 complete control), approx. 10 d, read-out: Barnyardgrass plant response rating; for pest or weed control at 31 g/ha: Postemergence, 31 g ai/ha, visual injury after approx. 10 d, 0 to 100 scale, 0 no effect, 100 complete control, read-out: Plant response rating, Barnyardgrass
Summary of the method: as §2

[15] = tested on: blackgrass (Alopecurus myosuroides); experiment: Test A postemergence; details: Alopecurus myosuroides, post-emergence, 240 h; for pest or weed control at 125 g/ha: 125 g ai/ha, postemergence, visual injury on 0 to 100 scale (0 no effect, 100 complete control), approx. 10 d, read-out: Blackgrass plant response rating; for pest or weed control at 31 g/ha: Postemergence, 31 g ai/ha, visual injury after approx. 10 d, 0 to 100 scale, 0 no effect, 100 complete control, read-out: Plant response rating, Blackgrass
Summary of the method: as §2

[16] = tested on: ragweed (common ragweed, Ambrosia elatior); experiment: Test A postemergence; details: Ambrosia artemisiifolia, post-emergence, 240 h; for pest or weed control at 125 g/ha: 125 g ai/ha, postemergence; for pest or weed control at 31 g/ha: Postemergence, 31 g ai/ha, visual injury after approx. 10 d, 0 to 100 scale, 0 no effect, 100 complete control, read-out: Plant response rating, Ragweed
Summary of the method: as §2

[17] = tested on: wheat (Triticum aestivum); experiment: Test A postemergence; details: Triticum aestivum, post-emergence, 240 h; for plant injury at 125 g/ha: 125 g ai/ha, postemergence; for plant injury at 31 g/ha: Postemergence, 31 g ai/ha, visual injury after approx. 10 d, 0 to 100 scale, 0 no effect, 100 complete control, read-out: Plant response rating, Wheat
Summary of the method: as §2

corn (Zea mays) = experiment: Test A postemergence; details: Zea mays, post-emergence, 240 h; for plant injury at 125 g/ha: 125 g ai/ha, postemergence, visual injury on 0 to 100 scale (0 no effect, 100 complete control), approx. 10 d, read-out: Corn plant response rating; for Corn plant response rating (crop injury, 0 = no effect, 100 = complete kill) at 31 g/ha: Postemergence, 31 g ai/ha, visual injury after approx. 10 d, 0 to 100 scale, 100 complete control
Summary of the method: as §2

[18] = tested on: giant foxtail (Setaria faberii); experiment: Test A postemergence; details: Setaria faberi, post-emergence, 240 h; for pest or weed control at 125 g/ha: 125 g ai/ha, postemergence, visual injury on 0 to 100 scale (0 no effect, 100 complete control), approx. 10 d, read-out: Foxtail, Giant plant response rating; for pest or weed control at 31 g/ha: Postemergence, 31 g ai/ha, visual injury after approx. 10 d, 0 to 100 scale, 0 no effect, 100 complete control, read-out: Plant response rating, Foxtail, Giant
Summary of the method: as §2

Row | SMILES | pest or weed control at 250 g/ha [1] | pest or weed control at 250 g/ha (rice (Oryra sativa)) | pest or weed control at 250 g/ha [2] | pest or weed control at 250 g/ha [3] | pest or weed control at 31 g/ha [4] | pest or weed control at 125 g/ha [4] | pest or weed control at 31 g/ha (Kochia (Kochia scoparia) [5]) | pest or weed control at 125 g/ha (Kochia (Kochia scoparia) [5]) | pest or weed control at 31 g/ha [6] | pest or weed control at 125 g/ha [6] | pest or weed control at 31 g/ha [7] | pest or weed control at 125 g/ha [7] | pest or weed control at 31 g/ha [8] | pest or weed control at 125 g/ha [8] | pest or weed control at 31 g/ha [9] | pest or weed control at 125 g/ha [9] | pest or weed control at 31 g/ha [10] | pest or weed control at 125 g/ha (Kochia (Kochia scoparia) [11]) | pest or weed control at 31 g/ha (Kochia (Kochia scoparia) [11]) | pest or weed control at 125 g/ha [12] | also measured
1 | CN1C[C@H](c2csc3c2CCC3)[C@@H](C(=O)Nc2ccccc2S(C)(=O)=O)C1=O [Compound 1082] | 0% | 35% | 0% | 70% | 0% | 0% | 0% | 0% | 0% | 0% | 0% | 0% | 0% | 0% | 0% | 0% | 0% | 0% | 0% | 0% | pest or weed control at 125 g/ha ([10]; visual injury on 0 to 100 scale (0 no effect, 100 complete control), approx. 10 d, read-out: Ryegrass, Italian plant response rating): 0%; pest or weed control at 31 g/ha [12]: 0%; pest or weed control at 125 g/ha ([13]; visual injury on 0 to 100 scale (0 no effect, 100 complete control), approx. 10 d, read-out: Pigweed plant response rating): 0%; pest or weed control at 31 g/ha [13]: 0%; pest or weed control at 125 g/ha [14]: 30%; pest or weed control at 31 g/ha [14]: 0%; pest or weed control at 125 g/ha [15]: 0%; pest or weed control at 31 g/ha [15]: 0%; pest or weed control at 125 g/ha ([16]; visual injury on 0 to 100 scale (0 no effect, 100 complete control), approx. 10 d, read-out: Ragweed plant response rating): 0%; pest or weed control at 31 g/ha [16]: 0%; plant injury at 125 g/ha ([17]; visual injury on 0 to 100 scale (0 no effect, 100 complete control), approx. 10 d, read-out: Wheat plant response rating): 0%; plant injury at 31 g/ha [17]: 0%; plant injury at 125 g/ha (corn (Zea mays)): 30%; Corn plant response rating (crop injury, 0 = no effect, 100 = complete kill) at 31 g/ha (corn (Zea mays)): 0%; pest or weed control at 125 g/ha [18]: 0%; pest or weed control at 31 g/ha [18]: 0%
2 | CC(O)c1ccccc1NC(=O)C1C(=O)N(C)CC1c1cccc(C(F)(F)F)c1 (stereo not drawn) [Compound 1147] | 0% | 15% | 0% | 0% | 0% | 0% | 0% | 0% | 0% | 0% | 0% | 20% | 0% | 0% | 0% | 20% | 0% | 0% | 0% | 0% | pest or weed control at 125 g/ha ([10]; visual injury vs untreated controls after approx. 10 d, 0 = no effect, 100 = complete control, read-out: Ryegrass, Italian plant response rating (0 to 100 scale)): 0%; pest or weed control at 31 g/ha [12]: 0%; pest or weed control at 125 g/ha ([13]; visual injury vs untreated controls after approx. 10 d, 0 = no effect, 100 = complete control, read-out: Pigweed plant response rating (0 to 100 scale)): 0%; pest or weed control at 31 g/ha [13]: 0%; pest or weed control at 125 g/ha [14]: 0%; pest or weed control at 31 g/ha [14]: 0%; pest or weed control at 125 g/ha [15]: 0%; pest or weed control at 31 g/ha [15]: 0%; pest or weed control at 125 g/ha ([16]; visual injury vs untreated controls after approx. 10 d, 0 = no effect, 100 = complete control, read-out: Ragweed plant response rating (0 to 100 scale)): 0%; pest or weed control at 31 g/ha [16]: 0%; plant injury at 125 g/ha ([17]; visual injury vs untreated controls after approx. 10 d, 0 = no effect, 100 = complete control, read-out: Wheat plant response rating (0 to 100 scale)): 0%; plant injury at 31 g/ha [17]: 0%; plant injury at 125 g/ha (corn (Zea mays)): 0%; Corn plant response rating (crop injury, 0 = no effect, 100 = complete kill) at 31 g/ha (corn (Zea mays)): 0%; pest or weed control at 125 g/ha [18]: 0%; pest or weed control at 31 g/ha [18]: 0%
